Test results as given in patent US20170305981A1, “SYNTHETIC PEPTIDES” (The University of Chicago, priority 2014, published 2017).
Several values for one entry are separate records, joined by “and”; a condition that tells them apart may be missing. Equal values may be shown once. Entries after “also recorded” stand apart in the source; their conditions may differ. One block for each substance: values may come before it.

Columns and labels:
[1] = tested on: lipoprotein lipase (LpL); assay: Lipoprotein lipase (LpL) in vitro activity assay with fluorogenic TG substrate EnzChek; format: biochemical; conditions: for LpL stimulating activity of domain substitution peptides relative to AV199-232: knockout substitutions in AV199-232 domains
Experimental: FIG. 3A-C. Lipoprotein lipase (LpL) activity assay using a fluorogenic TG analog, EnzChek (Invitrogen). The enzyme reaction mix was composed of increasing concentrations of LpL in 100 μl Tris buffered saline (TBS), 1% BSA, pH 7.8, 0.015% Zwittergent 3-14 and 1 μM EnzChek substrate. Reaction was monitored by fluorescence (λex=482 nm, λem=515 nm) and the relative fluorescence units (RFU) against time plotted (A). BODIPY labeled fatty acid (BODIPY-FA) was used to determine product concentration generated with the lipase (B). Structure of the EnzChek substrate (E33955) which was purchased from Invitrogen Inc. (C).
To search for lipase stimulators, a lipase assay was employed using a commercially available fluorogenic-TG substrate (EnzChek) supplied by Molecular Probes (FIG. 3). The protocol was adapted from Basu et al., (Basu et al. (2011) J.Lipid Res. 52, 826-832; herein incorporated by reference in its entirety) with minor modifications in pH and detergent. For in vitro assays, LpL (SIGMA) was diluted to 0.12 μg/ml in 20 mM Tris-HCl, 150 mM NaCl, 1% BSA, 0.015% Zwittergent 3-14, pH 7.8, 1 μM EnzChek substrate, prepared in 96-well black microtiter plates. For some assays the plates were incubates at 37° C. for 10min. Detection was performed in a Synergy H1 Multi-Mode Reader using excitation/emission wavelengths of 482 nm and 515 nm, respectively. […] Moreover, the product produced could be quantified using BODIPY-C12 fatty acids to determine the molar rates of enzyme reaction. Since the assay uses a non-toxic substrate and a low amount of neutral detergent it is possible to use this assay with live cells (FIG. 4). The lipase activities assayed were sensitive to both the removal of lipase (HL) from the surface of hepatocytes (by a heparin pre-wash) and to apolipoproteins present in isolated lipoproteins, VLDL, LDL and HDL preparations.

[2] = tested on: LpL; assay: LpL activity in the presence of human plasma / plasma TG-rich lipoproteins; format: biochemical; conditions: normal and dyslipidemic plasma
Experimental: (§1) The removal of cell surface LpL with heparin reduced activity.
(§2) Plasma contains lipoproteins with apoC-III and ANGPT4, known inhibitors of LpL activity. However, LpL activity in live leukocytes was stimulated by AV199-232 (FIG. 23C). […] AV199-232 was incubated with whole plasma from normal and diabetic/dyslipidemic plasma and then the TG-rich lipoproteins (Lp) were isolated by PEG-8000 precipitation and added to LpL assays (30 μg/ml).

[3] = Heparin binding (circular dichroism on addition of heparin)
Experimental: FIG. 10. AV199-232 is an a-helical peptide that binds heparin. Peptide folding and conformation was analyzed experimentally by circular dichroism spectroscopy (A) and calculated to be ˜42% α-helical which increased to ˜76% on binding heparin.
Given that there appeared to be a periodicity in the sequence of AV199-232 consisting of alternating polar and non-polar residues, the possibility that the peptide was folded into a amphipathic α-helix was investigated (FIG. 10). […] In silico analysis also predicted a high α-helical content. […] The amphipathic nature of the peptide was evident with polar residues and nonpolar residues (domain-L) organized to opposite sides of the helix. Domain-L is responsible for binding to VLDL. Domain-1, domain-2 and domain-H were also identified on the polar side.

[4] = tested on: VLDL; assay: VLDL binding, complexes isolated by gel filtration on Sepharose CL-4B, then LpL assay
Experimental: VLDL (100 μg) was incubated with AV199-232 (50 μg) and complexes were isolated from free peptide by gel filtration on a Sepharose CL-4B column (FIG. 15A).

[5] = molecular target: T1, Leukocyte-LpL (Homo sapiens, UniProt P06858); assay: LpL activity in live leukocytes isolated from fresh human blood; format: cell-based
T1 construct: endogenous in cells; host or cells: leukocytes isolated from fresh human blood
T1 sequence (P06858 28-475): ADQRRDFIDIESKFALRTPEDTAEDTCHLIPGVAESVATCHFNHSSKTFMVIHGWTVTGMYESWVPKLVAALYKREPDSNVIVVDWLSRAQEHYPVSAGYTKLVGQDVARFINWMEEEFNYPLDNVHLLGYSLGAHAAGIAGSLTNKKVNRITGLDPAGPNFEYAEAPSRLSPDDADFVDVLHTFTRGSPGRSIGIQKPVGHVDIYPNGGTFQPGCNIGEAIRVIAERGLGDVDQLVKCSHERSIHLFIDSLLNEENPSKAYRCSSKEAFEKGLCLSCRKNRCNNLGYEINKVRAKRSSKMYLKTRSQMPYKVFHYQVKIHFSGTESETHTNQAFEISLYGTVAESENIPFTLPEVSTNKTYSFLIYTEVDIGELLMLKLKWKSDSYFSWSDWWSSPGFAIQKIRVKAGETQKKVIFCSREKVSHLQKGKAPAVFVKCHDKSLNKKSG
Experimental: as §1, §2

[6] = tested on: LpL; assay: LpL enzyme kinetics (Vmax, Km) by Michaelis-Menten fitting; format: biochemical
Experimental: FIG. 9. […] Lipase reaction was performed with different substrate concentrations (0-25 μM) (A, C, D) to determine the kinetic parameters of LpL enzymatic activity, +/− VLDL (10 μg/ml) and +/− AV199-232 (2.5 μM). (B) The addition of VLDL reduced the enzymes affinity for substrate by 5.3-fold which is consistent with inhibition by apoC-III. […] Kinetic parameters were determined using GraphPad Prism software curve fitting to the Michaelis-Menten enzyme kinetic equation.
The influence of AV199-232 on the kinetic parameters of LpL activity (e.g., Vmax and Km) was investigated (FIG. 9A-B). […] This was due to the apoC-III content of VLDL. […] Also AV199-232 was functional in the presence of apoC-III in VLDL. The effect of different lipoproteins on LpL kinetics was compared (FIG. 9D).

[7] = molecular target: T2, LpL in THP-1 macrophages (Homo sapiens, UniProt P06858); assay: Lipase activity in cultures of live THP-1 macrophages; format: cell-based; conditions: live THP-1 macrophages known to express LpL
T2 construct: endogenous in cells; host or cells: THP-1 macrophages
T2 sequence (P06858 28-475): T1 sequence (P06858 28-475)
Experimental: FIG. 8. Determining the minimum peptide sequence (A) harboring full lipase stimulating activity (B, D). […] Assays were performed by adding 10 μM of peptide to in vitro LpL assays (B) or to hepatocyte (HepG2) cell cultures (D). In 24 well tissue culture plates, cells were incubated for 1 hr at 37° C. in 200 μL TBS, 1.5% BSA, 0.2% zwittergent 3-14, 1μM EnzChek substrate. AV199-232 was also active in cultures of live THP-1 macrophages known to express LpL (C).

[8] = peptides 80 μg/ml preincubated with VLDL 20 μg/ml
[9] = peptide added to LpL without VLDL, 10 μM

LpL stimulating activity of domain substitution peptides relative to AV199-232 [1]: did not influence AV199-232 activity
Substance: Dom1(E34K): AV199-232 with E34K substitution in domain 1 (ARLSRCVQVLSRKLTLKAKALHARIQQNLDQLRK)

influence on LpL activity [1, 9]: Little or no stimulating activity
Substance: AV250-288: peptide spanning residues 250-288 of apoA-V (DPQMLSEEVRQRLQAFRQDTYLQIAAFTRAIDQETEEVQ)
influence on LpL activity ([1]; in the presence of VLDL): Little or no stimulating activity; also recorded: did not

VLDL binding ([4]; VLDL 100 μg incubated with AV199-232 50 μg): binds VLDL | increase of LpL's apparent affinity for substrate (Km improvement) ([6]; AV199-232 2.5 μM + VLDL 10 μg/ml): ~8 fold and 7.8 fold | changes in the Vmax and Km of LpL ([6]; AV199-232 2.5 μM without VLDL): only marginal changes | lipase stimulating activity in THP-1 macrophages [7]: active
Substance: AV199-232: 34-residue peptide, residues 199-232 of apoA-V; AV199-237 shortened by 5 residues (ARLSRCVQVLSRKLTLKAKALHARIQQNLDQLRE; listed as Homo sapiens)
heparin binding [3]: heparin binding activity; also recorded: binds heparin | lipase stimulating activity of the shortened peptide relative to AV199-237 ([1]; 10 μM, in vitro LpL assays and HepG2 cell cultures): harbored full activity and was actually somewhat more potent; also recorded: enhancement of activity | LpL stimulation by the isolated VLDL:AV199-232 complex ([4]; void fraction (Vo) of gel filtration added to LpL): effective at stimulating LpL activity; also recorded: stimulates LpL activity | stimulation of LpL activity in live leukocytes [5]: responds; also recorded: stimulated; also recorded: responsive | stimulation of LpL activity in the presence of plasma [2]: stimulates LpL activity

lipase stimulating activity relative to AV-H/K [1, 8]: reduced lipase stimulating activity
Substance: SEQ ID NO: 22: AV-H/K with L10Q, L21Q and L29Q substitutions (ARLSRCVQVQSRKLTQKAKALKARIQQNQDQLRE; Mutated wild-type peptide)

Continued, substance first:

Substance: SEQ ID NO: 23: AV-H/K with L10F and L29F substitutions (ARLSRCVQVFSRKLTLKAKALKARIQQNFDQLRE; Mutated wild-type peptide)
improvement in lipase stimulating activity relative to AV-H/K [1, 8]: about 2 fold

Substance: Dom1KO: AV199-232 with domain 1 substitutions R12Q/D30S (ARLSRCVQVLSQKLTLKAKALHARIQQNLSQLRE)
LpL stimulating activity of domain substitution peptides relative to AV199-232 [1]: significant reduction

Substance: Dom2KO: AV199-232 with domain 2 substitutions K13Q/K17Q (ARLSRCVQVLSRQLTLQAKALHARIQQNLDQLRE)
LpL stimulating activity of domain substitution peptides relative to AV199-232 [1]: significant reduction

Substance: AV199-237: synthetic peptide spanning residues 199-237 of mature human apoA-V (ARLSRCVQVLSRKLTLKAKALHARIQQNLDQLREELSRA; listed as Homo sapiens)
influence on LpL activity ([1]; in the presence of VLDL): exceeded that seen with an apoC-II peptide (C-II50-79); also recorded: stimulated LpL activity in the presence of VLDL | influence on LpL activity [1, 9]: no change in activity; also recorded: did not increase enzyme activity | stimulation of LpL activity ([1]; peptide incubated with VLDL before adding to LpL, 10 μM): ~4 fold

Substance: DomLKO: peptide with domain L substitutions L10Q/L21Q/L29Q (ARLSRCVQVQSRKLTLKAKAQHARIQQNQDQLRE)
LpL stimulating activity of domain substitution peptides relative to AV199-232 [1]: moderate reduction in activity

Substance: AV-H/K: AV199-232 peptide with H in domain-H replaced with a K (ARLSRCVQVLSRKLTLKAKALKARIQQNLDQLRE; Mutated wild-type peptide)
stimulation of LpL activity in the presence of plasma [2]: stimulates LpL
